What all share (format): functional
A short description of assay [1]: (§1) Inhibition of neuronal excitability in C57BL/6 mouse Neocortical neurons assessed as reduction in spontaneous calcium oscillation amplitude measured for 10 mins by Fluo-4 staining based FLIPR assay. To be noted: C57BL/6, 10 min.
The species entered for assay [2] is Mus musculus. The assay is described as §1.
Assay [3] is described as follows: (§2) Inhibition of neuronal excitability in C57BL/6 mouse Neocortical neurons assessed as effect on spontaneous calcium oscillation frequency measured for 10 mins by Fluo-4 staining based FLIPR assay. As to conditions: C57BL/6, 10 min.
The species entered for assay [4] is Mus musculus. The assay is described as §2.

For 6 molecules, IC50 and inhibition results are on record in ChEMBL document CHEMBL4414614, “Phthalideisoquinoline Hemiacetal Alkaloids from Corydalis decumbens That Inhibit Spontaneous Calcium Oscillations, Including Alkyl Derivatives of (+)-Egenine That Are Strikingly Levorotatory” (J Nat Prod, 2019).

In general, IC50 refers to the point on the concentration scale where inhibition reaches its midpoint. As to `CCO[C@@H]1O[C@@H]([C@@H]2c3cc4c(cc3CCN2C)OCO4)c2ccc3c(c21)OCO3`, the IC50 in assay [1] and in assay [3] was 3.1 µM throughout. For the same molecule, the inhibition entry in assay [2] and in assay [4] was “Dose-dependent effect” in each case.

As for `CO[C@@H]1O[C@@H]([C@@H]2c3cc4c(cc3CCN2C)OCO4)c2ccc3c(c21)OCO3`, the IC50 in assay [1] and in assay [3] was 5.6 µM in each case. Further, the inhibition result in assay [2] and in assay [4] was “Dose-dependent effect” throughout.

With `COc1cc2c(cc1OC)[C@@H]([C@@H]1O[C@H](O)c3c1ccc1c3OCO1)N(C)CC2`, the IC50 in assay [1] and in assay [3] was 11.6 µM each time. Further, the inhibition result in assay [2] and in assay [4] was “Dose-dependent effect” each time.

Regarding `CCO[C@@H]1O[C@@H]([C@@H]2c3cc(OC)c(OC)cc3CCN2C)c2ccc3c(c21)OCO3`, the concentration for half-maximal inhibition (IC50) in assay [1] and in assay [3] was 10.2 µM in each case. Also, the inhibition result in assay [2] and in assay [4] was “Dose-dependent effect” each time.

`CCO[C@H]1O[C@@H]([C@@H]2c3cc4c(cc3CCN2C)OCO4)c2ccc3c(c21)OCO3`: the IC50 in assay [1] and in assay [3] was 8.3 µM in each case. The inhibition entry in assay [2] and in assay [4] was “Dose-dependent effect” in each case.

Regarding `CO[C@H]1O[C@@H]([C@@H]2c3cc4c(cc3CCN2C)OCO4)c2ccc3c(c21)OCO3`, the IC50 in assay [1] and in assay [3] was 6.8 µM each time. For the same molecule, the inhibition entry in assay [2] and in assay [4] was “Dose-dependent effect” throughout.
